Reference: US8809341B2, “2,4-pyrimidinediamine compounds and uses as anti-proliferative agents” (Rigel Pharmaceuticals, Inc., priority 2003, dated 2014)

Columns and labels:
A549 cells = assay: in vitro antiproliferation assay, A549 (lung); assay type: cell-based
Method in brief: (§1)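 Standard in vitro antiproliferation assays on tumour cell lines, including A549 and H1299 (both lung); IC50 values determined.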

H1299 cells = assay: in vitro antiproliferation assay, H1299 (lung); assay type: cell-based
Method in brief: as §1

[1] = IC50 class against A549 (lung) tumor cells
[2] = IC50 class against H1299 (lung) tumor cells
[3] = Table 7, in vitro antiproliferation, A549 (lung) cells
[4] = Table 7, in vitro antiproliferation, H1299 (lung) cells

Row | IC50 (A549 cells; [1]) | IC50 (H1299 cells; [2]) | IC50 (A549 cells; [3]) | IC50 (H1299 cells; [4]) | SMILES
1 | ≤ 20 µM | ≤ 20 µM |  |  | COc1cc(Nc2ncc(F)c(Nc3ccc4c(c3)NC(C)(C)CO4)n2)cc(OC)c1 [compound 588]
2 | ≤ 20 µM | ≤ 20 µM |  |  | COc1cc(Nc2ncc(F)c(Nc3ccc4c(n3)NCCO4)n2)cc(OC)c1OC [compound 611]
3 |  |  | ≤ 20 µM | ≤ 20 µM | CNC(=O)c1cc2cccc(Nc3ncc(F)c(Nc4ccc5c(c4)OC(F)(F)C(F)(F)O5)n3)c2[nH]1 [compound 653]
4 |  |  | ≤ 20 µM | ≤ 20 µM | CNC(=O)c1cc2cccc(Nc3ncc(F)c(Nc4ccc5c(c4)OCO5)n3)c2[nH]1 [compound 655]
5 |  |  | > 20 µM | > 20 µM | COC(=O)c1cc2cc(Nc3ncc(F)c(Nc4cc(OC)cc(OC)c4)n3)ccc2o1 [compound 656]
6 |  |  | > 20 µM | > 20 µM | COc1cc(Nc2nc(Nc3ccc4oc(C(=O)O)cc4c3)ncc2F)cc(OC)c1 [compound 657]
7 |  |  | > 20 µM | ≤ 20 µM | COc1cc(Nc2nc(Nc3ccc4[nH]c(C(C)=O)cc4c3)ncc2F)cc(OC)c1 [compound 658]
8 |  |  | > 20 µM | ≤ 20 µM | COC(=O)c1cc2cc(Nc3ncc(F)c(N(C)c4cc(OC)cc(OC)c4)n3)ccc2o1 [compound 662]
9 |  |  | ≤ 20 µM | ≤ 20 µM | CNC(=O)c1cc2cccc(Nc3ncc(F)c(N(C)c4cc(OC)cc(OC)c4)n3)c2[nH]1 [compound 663]
10 |  |  | ≤ 20 µM | ≤ 20 µM | CCOC(=O)c1cc2cccc(Nc3ncc(F)c(Nc4ccc(OC)c(OC)c4)n3)c2[nH]1 [compound 664]
11 |  |  | ≤ 20 µM | ≤ 20 µM | CNC(=O)c1cc2cccc(Nc3ncc(F)c(Nc4ccc(OC)c(OC)c4)n3)c2[nH]1 [compound 665]
12 |  |  | ≤ 20 µM | ≤ 20 µM | CCOC(=O)c1cc2cccc(Nc3ncc(F)c(N(C)c4ccc(OC)c(OC)c4)n3)c2[nH]1 [compound 666]
13 |  |  | > 20 µM | ≤ 20 µM | CNC(=O)c1cc2cccc(Nc3ncc(F)c(Nc4cc(C)cc(C)c4)n3)c2[nH]1 [compound 668]
14 |  |  | ≤ 20 µM | ≤ 20 µM | CNC(=O)c1cc2cccc(Nc3ncc(F)c(Nc4cc(OC)cc(C(F)(F)F)c4)n3)c2[nH]1 [compound 669]
15 |  |  | > 20 µM | > 20 µM | CNC(=O)c1cc2cccc(Nc3ncc(F)c(Nc4ccc5c(c4)OC(F)(F)O5)n3)c2[nH]1 [compound 670]
16 |  |  | > 20 µM | > 20 µM | COC(=O)c1cc2cc(Nc3ncc(F)c(N(C)c4ccc(OC)c(Cl)c4)n3)ccc2o1 [compound 671]

More lines, now with the values behind:

Row | SMILES | IC50 (A549 cells; [1]) | IC50 (H1299 cells; [2]) | IC50 (A549 cells; [3]) | IC50 (H1299 cells; [4])
17 | Fc1cnc(Nc2cccc(-c3ncco3)c2)nc1Nc1ccc2c(c1)NCCO2 [compound 589] | ≤ 20 µM | ≤ 20 µM |  | 
18 | CC1(C)COc2ccc(Nc3nc(Nc4cccc(-c5ncco5)c4)ncc3F)cc2N1 [compound 590] | ≤ 20 µM | ≤ 20 µM |  | 
19 | Fc1cnc(Nc2cccc(-c3cnco3)c2)nc1Nc1ccc2c(c1)NCCO2 [compound 591] | ≤ 20 µM | ≤ 20 µM |  | 
20 | CC1(C)COc2ccc(Nc3nc(Nc4cccc(-c5cnco5)c4)ncc3F)cc2N1 [compound 592] | > 20 µM | > 20 µM |  | 
21 | COc1c(C)cc(Nc2ncc(F)c(Nc3ccc4c(c3)NCC(C)(C)O4)n2)cc1Cl [compound 597] | ≤ 20 µM | ≤ 20 µM |  | 
22 | CC(=O)N1CCN(c2ccc(Nc3ncc(F)c(Nc4ccc5c(n4)NCCO5)n3)cc2)CC1 [compound 603] | ≤ 20 µM | ≤ 20 µM |  | 
23 | CCOC(=O)N1CCN(c2ccc(Nc3ncc(F)c(Nc4ccc5c(n4)NCCO5)n3)cc2)CC1 [compound 604] | > 20 µM | ≤ 20 µM |  | 
24 | Fc1cnc(Nc2cccc(N3CCOCC3)c2)nc1Nc1ccc2c(n1)NCCO2 [compound 605] | ≤ 20 µM | ≤ 20 µM |  | 
25 | CC(=O)N1CCN(c2cccc(Nc3ncc(F)c(Nc4ccc5c(n4)NCCO5)n3)c2)CC1 [compound 606] | ≤ 20 µM | ≤ 20 µM |  | 
26 | CCOC(=O)N1CCN(c2cccc(Nc3ncc(F)c(Nc4ccc5c(n4)NCCO5)n3)c2)CC1 [compound 607] | ≤ 20 µM | ≤ 20 µM |  | 
27 | CN1CCN(c2ccc(Nc3ncc(F)c(Nc4ccc5c(n4)NCCO5)n3)cc2)CC1 [compound 608] | ≤ 20 µM | ≤ 20 µM |  | 
28 | CN1CCN(c2cccc(Nc3ncc(F)c(Nc4ccc5c(n4)NCCO5)n3)c2)CC1 [compound 609] | ≤ 20 µM | ≤ 20 µM |  | 
29 | Fc1cnc(Nc2cccc(-c3ncco3)c2)nc1Nc1ccc2c(n1)NCCO2 [compound 610] | ≤ 20 µM | ≤ 20 µM |  | 
30 | COc1ccc(Nc2ncc(F)c(Nc3ccc4c(n3)NCCO4)n2)cc1Cl [compound 612] | > 20 µM | > 20 µM |  | 
31 | CN1CCN(c2ccc(Nc3ncc(F)c(Nc4ccc5c(n4)NCCO5)n3)cc2Cl)CC1 [compound 615] | ≤ 20 µM | ≤ 20 µM |  | 
32 | Cc1cc(Nc2ncc(F)c(Nc3ccc4c(n3)NCCO4)n2)ccc1N1CCN(C)CC1 [compound 616] | ≤ 20 µM | ≤ 20 µM |  | 
33 | COC(=O)c1cc2cccc(Nc3ncc(F)c(N(C)c4ccc5c(c4)OCCO5)n3)c2o1 [compound 661] |  |  | > 20 µM | > 20 µM
